{"source": "patent US20060094660A1", "about": "“Inhibitor of the shh signalling patway and a testosterone supressing agent for the treatment of cancer” (priority 2002, published 2006)", "key": {"[1]": {"target": "SONIC HEDGEHOG (SHH) protein, endogenous in cultured P0 Wistar rat ventral prostate (rat) (UniProt Q63673)", "sequence (Q63673 25-198 limits assumed)": "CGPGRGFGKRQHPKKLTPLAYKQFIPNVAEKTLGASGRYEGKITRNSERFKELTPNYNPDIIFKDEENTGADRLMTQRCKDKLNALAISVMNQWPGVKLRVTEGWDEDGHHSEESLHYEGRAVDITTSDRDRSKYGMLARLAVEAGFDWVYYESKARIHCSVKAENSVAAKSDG", "assay": "cell-based or functional assay"}, "Ptc transcripts [2]": {"tested_on": "Ptc transcripts", "assay": "RNase protection assay, VPs grown in vitro", "format": "cell-based, rat", "details": "six days −/+T; or five days T then one day cyproterone acetate", "description": "(§1) DNA templates for Shh and Ptc riboprobes were synthesised by RT-PCR from P0 UGT cDNA and subcloned into pBluescript KSII+ (Stratagene, USA). PCR primers were designed using GenBank-published cDNA sequences (Shh: GenBank Accession No. NM_017221; Primers: L—[…] (SEQ ID No 1), R—[…] (SEQ ID No 2); Ptc: GenBank Accession No. AF079162; Primers L—[…] (SEQ ID No 3), R—[…] (SEQ ID No 4)). DNA templates for Cyclophilin (Cphn) and 28S riboprobes were from Ambion, Inc., USA. ^32P-labelled anti-sense riboprobes were transcribed, and RNase protection assays performed as previously described in detail (Thomson et al., 1997). RNase protected products from Shh, Ptc, Cphn and 28S riboprobes were 269 nucleotides (nt), 322 nt, 103 nt and 155 nt respectively. Gels were imaged using a Storm phosphorimager (Molecular Dynamics, USA) and transcript abundance was determined from the intensities of bands, calculated using ImageQuant V.1.2 (Molecular Dynamics, USA).\n(§2) RPAs were performed to analyse Shh and Ptc transcripts levels in VPs and URs grown in vitro. VPs were cultured for six days in the presence or absence of T; or for five days with T followed by a one-day treatment with the AR antagonist cyproterone acetate (FIG. 3B). […] Similarly, in short-term cultures of VPs (seven hours or three days), no changes in transcript levels were observed (data not shown)."}, "Shh transcripts [3]": {"tested_on": "Shh transcripts", "assay": "RNase protection assay, VPs grown in vitro", "format": "cell-based, rat", "details": "six days −/+T; or five days T then one day cyproterone acetate", "description": "as §1, §2"}, "Ptc transcripts [4]": {"tested_on": "Ptc transcripts", "assay": "RNase protection assay, female URs cultured three days", "format": "cell-based, rat", "details": "three days −/+T (10^−8 M)", "description": "as §1, §2"}, "Shh transcripts [5]": {"tested_on": "Shh transcripts", "assay": "RNase protection assay, female URs cultured three days", "format": "cell-based, rat", "details": "three days −/+T (10^−8 M)", "description": "as §1, §2"}, "ventral prostate (VP) [6]": {"tested_on": "ventral prostate (VP)", "assay": "Organ culture of P0 rat VPs: BrdU incorporation, mitotic/proliferative index", "format": "cell-based", "details": "for % proliferative nuclei, mesenchyme: day 2; for % proliferative nuclei, epithelium: day 3", "method": "(§3) Anti-CK14 antibody was diluted at 1:100, and anti-p63 antibody (Santa Cruz Biotechnologies Inc., USA) was diluted at 1:500. […] Mitotic indices were calculated by counting the number of pan-cytokeratin-positive epithelial cells that were also BrdU-positive.\n[…] […] The percentage of proliferating cells was scored from three images of the peripheral tips of the organs (distal), and three images of the ducts closest to the urethra (proximal), totalling 27 distal and proximal counts for each treatment group.\nThe proliferative index of the epithelial and mesenchymal cell compartments was calculated for VPs cultured −/+T and −/+SHH after the addition of BrdU (FIG. 10D)."}, "UGS explants": {"tested_on": "UGS explants", "details": "for prostatic buds: 7 days", "experimental": "As the prostate was not well developed in either mutant (FIG. 9B) or wildtype males at this stage, UGS explants from both Shh null mice and their littermates were grown in vitro to determine if prostatic budding could be induced (n=3)."}, "ventral prostate (VP) [7]": {"tested_on": "ventral prostate (VP)", "assay": "Organ culture of P0 rat VPs: peripheral epithelial bud tips per unit perimeter", "format": "cell-based", "details": "for mean bud tips per unit perimeter: six days; for mean bud tips per 1000 pixels perimeter: 3 days", "description": "We chose to analyse the effect of Cy on the prostatic epithelia of VPs grown in vitro. Epithelial bud tips situated at the periphery of VPs (total of 60 VPs from each of four treatment groups and 16 independent experiments) were counted and expressed as a ratio to organ perimeter, to account for the changes in organ size after treatments (FIG. 5C). The addition of Cy to organs cultured −T caused a significant increase in the number of peripheral tips per unit perimeter (−T=60.16±/−0.97 mean bud tips per unit perimeter versus −T +Cy=74.47+/−1.07; Student's t-test, P=1.31 e^−17). […] It is possible that the number of tips induced by T or Cy were the maximum for the in vitro system, thus additive effects may not be apparent due to the limitations of the system. […] An increase in peripheral tip number was also observed in VPs cultured with anti-SHH antibody (5E1) in the absence of T (−T=62.13+/−0.82 versus −T+5E1=93.03+/−1.08), with a similar peripheral tip number being observed between VPs cultured +T and +T+5E1 (+T=74.32+/−0.69 versus +T+5E1=79.21+/−1.28).\nThe number of peripheral bud tips from the cultured VPs was counted and expressed as a ratio to perimeter (FIG. 10C)."}, "ventral prostate (VP) [8]": {"tested_on": "ventral prostate (VP)", "method": "Serum-free organ culture of P0 Wistar rat VPs was performed as previously described (Sugimura et al., 1996). […] The two-dimensional area and perimeter of organs was measured from live captured images using NIH Image software.\nP0 VPs were grown in vitro for five days in the presence (+) or absence (−) of T and with (+) or without (−) 100 μg ml^−1 anti-SHH antibody (5E1) (FIG. 4A), after which their two-dimensional area was measured (FIG. 4B).\nEffect of exogenous SHH on VP growth and branching. The effects of adding recombinant SHH to VPs grown in vitro was examined (FIG. 10). VPs were grown for 3 days −/+T and −/+recombinant SHH protein (n=6)."}, "ventral prostate (VP) [9]": {"tested_on": "ventral prostate (VP)", "assay": "Organ culture of P0 rat VPs: histology (Masson's trichrome) and p63/CK14 immunohistochemistry", "format": "cell-based", "details": "six days", "method": "as §3\nProstatic ducts grow initially as solid cords, which then canalise, resulting in ducts that contain lumens. […] Normal prostatic ducts in rats consist of luminal secretory cells with underlying basal cells, forming a single lumen."}, "Shh transcripts [10]": {"tested_on": "Shh transcripts", "details": "explants cultured for three days; cited from earlier work"}}, "note": "Where “and” joins values, the source holds several entries; their conditions need not be identical. Identical values can stand only once. Like-named read-outs stand apart in the source and are kept apart here.", "data": [{"molecule": "anti-SHH antibody (clone 5E1, Developmental Studies Hybridoma Bank, University of Iowa)", "values": [{"measurement": "decrease in growth of P0 rat ventral prostate in vitro (two-dimensional area, five days of culture, 100 ug/ml antibody)", "setting": "[1]", "value": 20, "unit": "%"}, {"measurement": "decrease in testosterone-induced growth of rat ventral prostates in vitro", "setting": "[1]", "value": 50, "unit": "%"}]}, {"molecule": "C[C@]12CC[C@H]3[C@@H](CCC4=CC(=O)CC[C@@]43C)[C@@H]1CC[C@@H]2O", "note": "[T, testosterone]", "values": [{"measurement": "Ptc transcript abundance", "setting": "Ptc transcripts [2]", "value": "No significant difference"}, {"measurement": "Shh transcript abundance", "setting": "Shh transcripts [3]", "value": "No significant difference"}, {"measurement": "change in Ptc transcript levels", "setting": "Ptc transcripts [4]", "value": "no significant change"}, {"measurement": "upregulation of Shh transcripts", "setting": "Shh transcripts [5]", "value": "two-and-a-half-fold"}, {"measurement": "mitotic nuclei in distal epithelial tips", "setting": "ventral prostate (VP) [6]; +T alone (Cy experiments), day six", "value": 23.24, "unit": "%+/−1.86%"}, {"measurement": "% proliferative nuclei, mesenchyme", "setting": "ventral prostate (VP) [6]; +T alone (SHH experiments)", "value": 17.81, "unit": "%+/−1.22%"}, {"measurement": "% proliferative nuclei, epithelium", "setting": "ventral prostate (VP) [6]; +T alone (SHH experiments)", "value": 32.54, "unit": "%+/−1.65%"}, {"measurement": "proliferation in proximal ducts", "setting": "ventral prostate (VP) [6]; response to T", "value": "reduced"}, {"measurement": "prostatic buds", "setting": "UGS explants; +T", "value": "present"}, {"measurement": "peripheral tip number", "setting": "ventral prostate (VP) [7]; +T alone (5E1 experiments)", "value": "74.32+/−0.69"}, {"measurement": "mean bud tips per unit perimeter", "setting": "ventral prostate (VP) [7]; +T alone (Cy experiments)", "value": "71.80+/−0.83 bud tips per unit perimeter"}, {"measurement": "mean bud tips per 1000 pixels perimeter", "setting": "ventral prostate (VP) [7]; +T alone (SHH experiments)", "value": "83.92+/−2.25 bud tips per 1000 pixels perimeter"}, {"measurement": "% area (2D area relative to −T)", "setting": "ventral prostate (VP) [8]; +T alone (SHH experiments), 3 days", "value": "127.05+/−5.12%"}]}, {"molecule": "SHH: recombinant SHH protein (Research Diagnostics, USA)", "values": [{"measurement": "% proliferative nuclei, mesenchyme", "setting": "ventral prostate (VP) [6]; +T+SHH", "value": 20.47, "unit": "%+/−1.07%"}, {"measurement": "% proliferative nuclei, epithelium", "setting": "ventral prostate (VP) [6]; +T+SHH", "value": 30.46, "unit": "%+/−1.72%"}, {"measurement": "reduction of epithelial cell proliferation", "setting": "ventral prostate (VP) [6]; VPs grown +T, not statistically significant", "value": 6, "unit": "%"}, {"measurement": "reduction of epithelial cell proliferation", "setting": "ventral prostate (VP) [6]; VPs grown −T", "value": "a third"}, {"measurement": "% proliferative nuclei, epithelium", "setting": "ventral prostate (VP) [6]; −T +SHH", "value": 18.62, "unit": "%+/−2.06%"}, {"measurement": "% proliferative nuclei, mesenchyme", "setting": "ventral prostate (VP) [6]; −T+SHH", "value": 19.45, "unit": "%+/−1.12%"}, {"measurement": "mean bud tips per 1000 pixels perimeter", "setting": "ventral prostate (VP) [7]; +T +SHH", "value": "68.34+/−2.57 bud tips per 1000 pixels perimeter"}, {"measurement": "mean bud tips per 1000 pixels perimeter", "setting": "ventral prostate (VP) [7]; −T +SHH", "value": "48.0+/−3.35 bud tips per 1000 pixels perimeter"}, {"measurement": "% area (2D area relative to −T)", "setting": "ventral prostate (VP) [8]; +T +SHH, 3 days", "value": "123.03+/−6.75%"}, {"measurement": "effect on mesenchyme of cultured VPs", "setting": "ventral prostate (VP) [8]; recombinant SHH, 3 days, both −/+T", "value": "expansion of the mesenchyme around the periphery of VPs"}]}, {"molecule": "CC1=C2C[C@H]3[C@@H](CC=C4C[C@@H](O)CC[C@@]43C)[C@@H]2CC[C@]12O[C@@H]1C[C@H](C)CN[C@H]1[C@H]2C", "note": "[Cy, cyclopamine]", "values": [{"measurement": "CK14 expression", "setting": "ventral prostate (VP) [9]; +T +Cy", "value": "very few CK14-positive cells in distal tips"}, {"measurement": "canalisation (lumens) of prostatic ducts", "setting": "ventral prostate (VP) [9]; +T +Cy", "value": "exhibited lumens in distal tips"}, {"measurement": "p63 expression", "setting": "ventral prostate (VP) [9]; +T +Cy", "value": "confined to the basal cell layer of all distal tips"}, {"measurement": "appearance of epithelial tips", "setting": "ventral prostate (VP) [9]; −T +Cy", "value": "did not alter the appearance of epithelial tips"}, {"measurement": "mitotic nuclei in distal epithelial tips", "setting": "ventral prostate (VP) [6]", "value": "13.48%+/−0.93% and 16.28%+/−0.74%"}, {"measurement": "toxicity to explants", "setting": "UGS explants; 5 μM Cy", "value": "toxic and caused premature organ death"}, {"measurement": "toxicity to explants", "setting": "UGS explants; 10 μM Cy", "value": "toxic and caused premature organ death"}, {"measurement": "prostatic buds", "setting": "UGS explants; +T +5 μM Cy", "value": "present"}, {"measurement": "prostatic buds", "setting": "UGS explants; +T +10 μM Cy", "value": "present"}, {"measurement": "mean bud tips per unit perimeter", "setting": "ventral prostate (VP) [7]; +T +Cy", "value": "69.84+/−1.13 bud tips per unit perimeter"}, {"measurement": "mean bud tips per unit perimeter", "setting": "ventral prostate (VP) [7]; −T +Cy", "value": "74.47+/−1.07 bud tips per unit perimeter"}, {"measurement": "effect on VP cultures", "setting": "ventral prostate (VP) [8]", "value": "little or no effect"}, {"measurement": "optimum concentration for growth inhibition", "setting": "ventral prostate (VP) [8]", "value": 1, "unit": "µM"}, {"measurement": "toxicity to VP organ cultures (organs dying prematurely)", "setting": "ventral prostate (VP) [8]", "value": "toxic"}]}, {"molecule": "C[C@]12CCC(=O)C[C@@H]1CC[C@@H]1[C@@H]2CC[C@]2(C)[C@@H](O)CC[C@@H]12", "note": "[dihydrotestosterone]", "values": [{"measurement": "increase in Shh transcripts", "setting": "Shh transcripts [10]", "value": "five-fold"}]}, {"molecule": "CC(=O)O[C@]1(C(C)=O)CC[C@H]2[C@@H]3C=C(Cl)C4=CC(=O)[C@@H]5C[C@@H]5[C@]4(C)[C@H]3CC[C@@]21C", "note": "[cyproterone acetate]", "values": [{"measurement": "Ptc transcript abundance", "setting": "Ptc transcripts [2]", "value": "No significant difference"}, {"measurement": "Shh transcript abundance", "setting": "Shh transcripts [3]", "value": "No significant difference"}]}]}
